Legend:
[1] = system: paclitaxel-induced hyperalgesia; assay: Paclitaxel-induced hyperalgesia in the rat (paw-pressure test); format: in vivo; settings: PCT-treated rats, 3 mg/kg i.v., mean ± S.E.M.; for Mechanical threshold (g), After Treatment 15 min: 15 min after treatment; for Mechanical threshold (g), After Treatment 30 min: 30 min after treatment; for Mechanical threshold (g), After Treatment 45 min: 45 min after treatment
Method: In all methods, paw mechanical sensitivity was determined using either the paw pressure test or the incapacitance test. The paw pressure test utilizes a Randall & Selitto apparatus, exerting a force that increases at constant rate (32 g/s). The stimulus at which rats withdrawn the paw was evaluated before and at different times after treatment. Results represent the mean of mechanical thresholds expressed as grams. To avoid any possible damage to the animal paw the maximum applied force was fixed at 240 g. Peripheral neuropathy is induced by repeated administration of vincristine, paclitaxel or oxaliplatin to adult male Sprague-Dawley rats (150-200 g, supplier Harlan). The following protocols were used respectively: • Vincristine: the drug was injected by intravenous route at the dose of 150 μg/kg. The treatment was performed every 2 days, for 5 times, until a cumulative dose of 750 μg/kg was reached. Paw pressure test was performed 4 days after the last injection (Marchand F. et al. 2003, Brain Res. 980:117-120). • Paclitaxel: paclitaxel (PCT) neuropathy was induced by intraperitoneal administration of 0.5 mg/kg once a day, on days 1, 3, 5 and 8. Cumulative paclitaxel dose was 2 mg/kg. The pharmacological test was performed 14-18 days after the last paclitaxel injection (Polomano R. C. et al. 2001, Pain 94:293-304). • Oxaliplatin: 2.4 mg/kg were injected by intraperitoneal route for 5 consecutive days followed by 2 days suspension (one cicle). A total of 3 cycles was performed, reaching a cumulative dose of 36 mg/kg (Cavaletti G. 2001, Eur. J. Cancer 37:2457-2463). The test was performed 48 h after the last oxaliplatin injection. 2. Osteoarthritic Pain

MIA-induced hyperalgesia [2] = assay: MIA-induced hyperalgesia in the rat (paw-pressure test), osteoarthritic pain; format: in vivo; settings: MIA-treated rats, mean ± S.E.M.; for Mechanical threshold (g), After Treatment 15 min / Mechanical threshold (g), After Treatment 30 min / Mechanical threshold (g), After Treatment 45 min: 3 mg/kg i.v.; for Mechanical threshold (g), After Treatment 15 min: 15 min after treatment; for Mechanical threshold (g), After Treatment 30 min: 30 min after treatment; for Mechanical threshold (g), After Treatment 45 min: 45 min after treatment; for Mechanical threshold (g), Before Treatment basal: group 3 mg/kg i.v.
Method: In all methods, paw mechanical sensitivity was determined using either the paw pressure test or the incapacitance test. The paw pressure test utilizes a Randall & Selitto apparatus, exerting a force that increases at constant rate (32 g/s). The stimulus at which rats withdrawn the paw was evaluated before and at different times after treatment. Results represent the mean of mechanical thresholds expressed as grams. To avoid any possible damage to the animal paw the maximum applied force was fixed at 240 g. Osteoarthritis was induced by a single administration of 2 mg (in a volume of 25 μl) of monosodium iodoacetate (MIA) into the left knee joint of anaesthetized rats (male adult Sprague Dawley rats, 150-200 g, supplier Harlan) (Fernihough J. 2004, Pain 112:83-93). This treatment induces the progressive degeneration of the joint and the development of hyperalgesia, mimicking at the histological and behavioral levels what observed in humans. Pharmacological test was performed 7 days after treatment.

MIA-induced hyperalgesia [3] = assay: MIA-induced hyperalgesia in the rat (incapacitance test), osteoarthritic pain; format: in vivo; settings: MIA-treated rats, grams of the right paw, mean ± S.E.M.
Method: In all methods, paw mechanical sensitivity was determined using either the paw pressure test or the incapacitance test. […] Osteoarthritis was induced by a single administration of 2 mg (in a volume of 25 μl) of monosodium iodoacetate (MIA) into the left knee joint of anaesthetized rats (male adult Sprague Dawley rats, 150-200 g, supplier Harlan) (Fernihough J. 2004, Pain 112:83-93). This treatment induces the progressive degeneration of the joint and the development of hyperalgesia, mimicking at the histological and behavioral levels what observed in humans. Pharmacological test was performed 7 days after treatment.

[4] = 3 mg/kg i.v., 15 min after treatment
[5] = 3 mg/kg i.v., 30 min after treatment
[6] = 3 mg/kg i.v., 45 min after treatment
[7] = before treatment (basal), group 3 mg/kg i.v.

Structure (SMILES) | Mechanical threshold (g), After Treatment 15 min [1] [g] | Mechanical threshold (g), After Treatment 30 min [1] [g] | Mechanical threshold (g), After Treatment 45 min [1] [g] | Mechanical threshold (g), After Treatment 15 min (MIA-induced hyperalgesia [2]) [g] | Mechanical threshold (g), After Treatment 30 min (MIA-induced hyperalgesia [2]) [g] | Mechanical threshold (g), After Treatment 45 min (MIA-induced hyperalgesia [2]) [g] | Mechanical threshold (g), Before Treatment basal (MIA-induced hyperalgesia [2]) [g] | Weight borne on right hind paw (MIA-induced hyperalgesia [3]; [4]) [g] | Weight borne on right hind paw (MIA-induced hyperalgesia [3]; [5]) [g] | Weight borne on right hind paw (MIA-induced hyperalgesia [3]; [6]) [g] | Weight borne on right hind paw (MIA-induced hyperalgesia [3]; [7]) [g] | melting point [°C]
O=C1CC[C@@H]2CN(S(=O)(=O)c3cccc(F)c3)CCN12 [Example 4, (R)-(+)2-(3-fluorophenylsulfonyl)hexahydro pyrrolo[1,2-a]pyrazin-6(7H)-one] | 51.1 ± 2.4 | 55.8 ± 2.4 | 47.3 ± 2.9 | 41.4 ± 3.1 | 53.0 ± 3.5 | 42.6 ± 3.2 | 23.1 ± 2.5 | 90.1 ± 8.2 | 96.2 ± 7.5 | 72.5 ± 7.2 | 41.4 ± 5.8 | 179 to 180
O=C1CC[C@@H]2CN(S(=O)(=O)c3ccccc3C(F)(F)F)CCN12 [Example 8, (R)-(+)-2-(2-(trifluoromethyl)phenylsulfonyl) hexahydropyrrolo [1,2-a]pyrazin-6(7H)-one] | 42.2 ± 3.0 | 39.3 ± 3.2 | 37.5 ± 3.2 | 59.4 ± 1.6 | 63.8 ± 2.6 | 50.2 ± 3.7 | 22.6 ± 2.0 | 119.0 ± 7.5 | 113.5 ± 6.6 | 72.9 ± 6.3 | 40.4 ± 8.2 | 157 to 158
